Each block holds one compound with its values, some of them ahead of it.
Key:
[1] = target: T1, Tyrosine-protein kinase ITK/TSK (Homo sapiens) (UniProt Q08881); assay: Selectivity interaction (KinomeScan (DiscoverX)) EUB0000618a ITK; details: at 10 µM
T1 sequence (whole entry): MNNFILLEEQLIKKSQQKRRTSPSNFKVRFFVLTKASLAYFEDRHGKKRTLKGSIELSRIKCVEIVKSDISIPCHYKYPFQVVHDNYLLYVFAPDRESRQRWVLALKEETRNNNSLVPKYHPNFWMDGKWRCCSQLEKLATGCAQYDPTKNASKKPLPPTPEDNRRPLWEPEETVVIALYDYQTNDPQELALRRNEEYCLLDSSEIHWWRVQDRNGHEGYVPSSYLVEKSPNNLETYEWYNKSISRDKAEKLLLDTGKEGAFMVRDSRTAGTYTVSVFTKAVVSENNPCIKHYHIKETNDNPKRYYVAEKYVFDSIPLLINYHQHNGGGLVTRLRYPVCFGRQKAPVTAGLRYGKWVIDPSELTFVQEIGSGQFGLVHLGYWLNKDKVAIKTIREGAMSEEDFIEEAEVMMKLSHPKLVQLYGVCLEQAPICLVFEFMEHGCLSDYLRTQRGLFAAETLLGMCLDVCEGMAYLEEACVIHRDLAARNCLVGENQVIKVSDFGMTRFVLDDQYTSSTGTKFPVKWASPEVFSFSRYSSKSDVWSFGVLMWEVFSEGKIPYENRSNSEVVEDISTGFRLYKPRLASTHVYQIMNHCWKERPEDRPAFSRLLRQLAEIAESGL

[2] = target: Ribosomal protein S6 kinase alpha-2 (Homo sapiens) (UniProt Q15349); assay: Selectivity interaction (KinomeScan (DiscoverX)) EUB0000607a RPS6KA2; details: at 10 µM
[3] = target: T2, Mitogen-activated protein kinase kinase kinase 6 (Homo sapiens) (UniProt O95382); assay: Selectivity interaction (KinomeScan (DiscoverX)) EUB0000045b MAP3K6
T2 sequence (whole entry): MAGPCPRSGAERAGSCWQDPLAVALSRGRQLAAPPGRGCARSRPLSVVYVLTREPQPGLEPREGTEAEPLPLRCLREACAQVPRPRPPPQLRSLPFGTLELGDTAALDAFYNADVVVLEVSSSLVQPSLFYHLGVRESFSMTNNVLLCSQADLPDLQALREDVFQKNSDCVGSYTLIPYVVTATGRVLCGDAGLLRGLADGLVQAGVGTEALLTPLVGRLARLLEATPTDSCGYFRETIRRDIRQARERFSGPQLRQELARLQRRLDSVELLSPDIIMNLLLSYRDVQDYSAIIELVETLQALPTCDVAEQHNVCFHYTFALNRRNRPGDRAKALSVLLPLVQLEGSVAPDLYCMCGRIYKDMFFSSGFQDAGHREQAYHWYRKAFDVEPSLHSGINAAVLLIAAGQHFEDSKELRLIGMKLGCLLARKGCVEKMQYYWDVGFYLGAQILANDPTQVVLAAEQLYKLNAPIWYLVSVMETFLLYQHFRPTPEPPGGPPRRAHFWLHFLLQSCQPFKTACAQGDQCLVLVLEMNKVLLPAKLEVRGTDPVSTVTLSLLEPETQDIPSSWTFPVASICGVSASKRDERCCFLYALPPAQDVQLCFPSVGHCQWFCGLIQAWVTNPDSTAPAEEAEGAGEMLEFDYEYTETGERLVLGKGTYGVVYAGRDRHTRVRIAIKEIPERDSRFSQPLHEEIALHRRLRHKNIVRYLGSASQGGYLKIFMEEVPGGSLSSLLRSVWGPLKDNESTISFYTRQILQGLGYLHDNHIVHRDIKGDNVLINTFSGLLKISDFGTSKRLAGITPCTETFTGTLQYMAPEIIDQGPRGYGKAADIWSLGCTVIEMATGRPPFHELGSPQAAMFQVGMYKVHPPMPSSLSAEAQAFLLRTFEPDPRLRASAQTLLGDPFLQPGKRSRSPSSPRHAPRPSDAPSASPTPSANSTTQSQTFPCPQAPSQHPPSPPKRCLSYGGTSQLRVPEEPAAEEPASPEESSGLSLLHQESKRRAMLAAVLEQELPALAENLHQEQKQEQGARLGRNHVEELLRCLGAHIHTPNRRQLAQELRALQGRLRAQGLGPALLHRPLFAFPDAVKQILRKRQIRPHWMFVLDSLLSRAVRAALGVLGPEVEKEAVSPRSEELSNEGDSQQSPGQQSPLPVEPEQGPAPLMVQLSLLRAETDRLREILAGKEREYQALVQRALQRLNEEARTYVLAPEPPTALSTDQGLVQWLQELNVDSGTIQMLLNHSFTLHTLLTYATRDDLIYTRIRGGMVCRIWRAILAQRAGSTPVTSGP

[4] = target: Casein kinase I isoform epsilon (Homo sapiens, UniProt P49674); assay: Selectivity interaction (ActivX KiNativ screen (kinase selectivity in THP-1 cell lysates)) EUB0000639a CSNK1E; assay type: subcellular; details: lysate
[5] = target: T3, Cyclin-dependent kinase 11A (Homo sapiens) (UniProt Q9UQ88); assay: Selectivity interaction (ActivX KiNativ screen (kinase selectivity in THP-1 cell lysates)) EUB0000639a CDK11A; assay type: subcellular; details: lysate, at 0.2 µM
T3 sequence (whole entry): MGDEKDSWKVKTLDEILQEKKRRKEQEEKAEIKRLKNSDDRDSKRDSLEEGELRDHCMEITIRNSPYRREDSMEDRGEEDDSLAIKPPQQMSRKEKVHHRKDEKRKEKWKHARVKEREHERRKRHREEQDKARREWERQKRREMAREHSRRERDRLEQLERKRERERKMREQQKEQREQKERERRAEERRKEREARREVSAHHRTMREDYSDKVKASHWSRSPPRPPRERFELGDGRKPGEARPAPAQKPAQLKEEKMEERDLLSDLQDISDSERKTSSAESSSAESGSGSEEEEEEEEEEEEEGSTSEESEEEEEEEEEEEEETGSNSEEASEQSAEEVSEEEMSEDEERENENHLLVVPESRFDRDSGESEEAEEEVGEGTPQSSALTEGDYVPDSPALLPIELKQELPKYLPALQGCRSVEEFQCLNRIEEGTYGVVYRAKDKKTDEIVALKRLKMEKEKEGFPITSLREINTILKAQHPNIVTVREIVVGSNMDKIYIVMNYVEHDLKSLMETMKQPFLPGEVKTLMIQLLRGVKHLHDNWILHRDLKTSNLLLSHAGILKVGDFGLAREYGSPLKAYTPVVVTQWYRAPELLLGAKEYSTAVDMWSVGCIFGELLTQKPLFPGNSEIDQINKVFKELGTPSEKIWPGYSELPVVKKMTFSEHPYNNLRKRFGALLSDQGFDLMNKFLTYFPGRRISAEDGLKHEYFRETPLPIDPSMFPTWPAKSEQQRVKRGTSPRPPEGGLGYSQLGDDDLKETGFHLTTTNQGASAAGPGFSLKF

Sequence of Casein kinase I isoform epsilon (P49674 whole entry, looked up, canonical isoform): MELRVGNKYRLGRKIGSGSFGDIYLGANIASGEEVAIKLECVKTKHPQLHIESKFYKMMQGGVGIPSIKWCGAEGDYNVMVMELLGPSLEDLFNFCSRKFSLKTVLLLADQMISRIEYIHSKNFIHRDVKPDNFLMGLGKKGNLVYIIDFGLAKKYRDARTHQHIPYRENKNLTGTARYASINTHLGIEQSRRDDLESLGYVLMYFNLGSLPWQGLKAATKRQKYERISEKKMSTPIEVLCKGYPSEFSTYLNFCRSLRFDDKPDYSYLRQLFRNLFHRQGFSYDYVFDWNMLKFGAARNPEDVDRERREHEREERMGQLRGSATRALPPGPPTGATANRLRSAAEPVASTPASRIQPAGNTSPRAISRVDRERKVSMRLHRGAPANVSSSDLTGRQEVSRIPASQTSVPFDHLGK
Sequence of Ribosomal protein S6 kinase alpha-2 (Homo sapiens) (Q15349 whole entry): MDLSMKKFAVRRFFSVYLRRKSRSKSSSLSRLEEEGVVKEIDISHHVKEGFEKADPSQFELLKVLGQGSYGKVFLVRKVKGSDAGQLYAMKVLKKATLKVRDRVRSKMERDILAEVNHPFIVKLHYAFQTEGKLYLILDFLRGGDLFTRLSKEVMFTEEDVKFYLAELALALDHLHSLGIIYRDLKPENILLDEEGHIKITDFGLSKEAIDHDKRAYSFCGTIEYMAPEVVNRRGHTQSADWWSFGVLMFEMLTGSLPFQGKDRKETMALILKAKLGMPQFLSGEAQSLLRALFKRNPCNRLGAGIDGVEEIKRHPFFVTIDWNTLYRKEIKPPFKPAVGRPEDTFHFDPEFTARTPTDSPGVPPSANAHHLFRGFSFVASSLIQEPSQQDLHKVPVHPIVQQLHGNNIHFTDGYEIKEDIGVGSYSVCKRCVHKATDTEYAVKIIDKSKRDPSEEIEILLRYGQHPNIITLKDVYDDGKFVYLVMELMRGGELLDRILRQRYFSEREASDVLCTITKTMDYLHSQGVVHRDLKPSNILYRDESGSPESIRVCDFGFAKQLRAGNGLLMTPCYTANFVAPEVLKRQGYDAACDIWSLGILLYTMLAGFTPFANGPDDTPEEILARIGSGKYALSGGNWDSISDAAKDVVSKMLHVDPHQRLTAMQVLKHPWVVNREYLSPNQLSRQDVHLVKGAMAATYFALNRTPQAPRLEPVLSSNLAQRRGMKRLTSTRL

Compound: O[C@H]1CC[C@H](Nc2ncc3nc(Nc4c(F)cc(F)cc4F)n([C@H]4CCOC4)c3n2)CC1
% of control [1]: 100%

Compound: CNC(=O)Nc1ccc(-c2nc(N3CC4CCC(C3)O4)c3cnn(C4CCC5(CC4)OCCO5)c3n2)cc1
% of control [2]: 100%

Compound: C=CC(=O)Nc1cc(-n2c(=O)ccc3cnc4ccc(-c5ccc(NS(C)(=O)=O)cc5)cc4c32)ccc1C
% of control ([3]; at 1 µM): 100%
% of control ([3]; at 10 µM): 100%

% of inhibition ([4]; at 0.01 µM): -6.6%
% of inhibition ([4]; at 0.04 µM): 20.3%
% of inhibition ([4]; at 0.2 µM): 53%
% of inhibition ([4]; at 1 µM): 77.8%
% of inhibition ([4]; at 5 µM): 94.8%
% of inhibition [5]: 7.2%
Compound: CC[C@@H]1[C@H](F)C(=O)N[C@@H]1COc1nccc2cc(C(N)=O)c(OC)cc12 [ZIMLOVISERTIB]

From ChEMBL document CHEMBL5465560, “Selectivity Literature for EUbOPEN Chemogenomic Library” (2024)
